# In US20240300932A1, “N-PHENYLIMINE DERIVATIVE AND PREPARATION METHOD AND USE THEREOF” (Guizhou University, priority 2023, published 2024):
# Tests used:
# Experiment in all cases: Post-emergence herbicidal activity test (stem and leaf spray, pot culture)
# Assay type in all cases: in vivo
# Conditions in all cases: 3 weeks after spraying
# Trifoliumre pensL. = test system: Trifoliumre pensL.
# Summary of the method: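 Rates of 10, 5 and 2.5 g/mu were applied in a single spray-tower treatment to 2–3-leaf plants, thinned to 10 per pot. Formulation: acetone solution, Tween 80, 1.5 L/ha methyl oleate synergist. Weed response assessed after 3 further greenhouse weeks; mean of three experiments.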
# Echinochloa crusgalli = test system: Echinochloa crusgalli
# Summary of the method: (§1)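 Graded 0–5 on fresh-weight growth control rate 3 weeks after a single spray-tower application at 10, 5 or 2.5 g/mu. Compounds in acetone with Tween 80 and methyl oleate synergist (1.5 liters/ha), applied to greenhouse weeds at 2- to 3-leaf stage.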
# Amaranthus retroflexus = test system: Amaranthus retroflexus
# Summary of the method: as §1
# Portulaca oleracea = test system: Portulaca oleracea
# Summary of the method: as §1
# Setaria viridis = test system: Setaria viridis
# Summary of the method: as §1
# Abutilon theophrasti = test system: Abutilon theophrasti
# Summary of the method: as §1
SMILES,"Post-emergence herbicidal activity, Trifoliumre pensL. (grade) (Trifoliumre pensL.; dosage 2.5 g/mu)","Post-emergence herbicidal activity, Trifoliumre pensL. (grade) (Trifoliumre pensL.; dosage 5 g/mu)","Post-emergence herbicidal activity, Trifoliumre pensL. (grade) (Trifoliumre pensL.; dosage 10 g/mu)","Post-emergence herbicidal activity, E. crusgalli (grade) (Echinochloa crusgalli; dosage 2.5 g/mu)","Post-emergence herbicidal activity, E. crusgalli (grade) (Echinochloa crusgalli; dosage 5 g/mu)","Post-emergence herbicidal activity, E. crusgalli (grade) (Echinochloa crusgalli; dosage 10 g/mu)","Post-emergence herbicidal activity, A. retroflexus (grade) (Amaranthus retroflexus; dosage 2.5 g/mu)","Post-emergence herbicidal activity, A. retroflexus (grade) (Amaranthus retroflexus; dosage 5 g/mu)","Post-emergence herbicidal activity, A. retroflexus (grade) (Amaranthus retroflexus; dosage 10 g/mu)","Post-emergence herbicidal activity, P. oleracea (grade) (Portulaca oleracea; dosage 2.5 g/mu)","Post-emergence herbicidal activity, P. oleracea (grade) (Portulaca oleracea; dosage 5 g/mu)","Post-emergence herbicidal activity, P. oleracea (grade) (Portulaca oleracea; dosage 10 g/mu)","Post-emergence herbicidal activity, S. viridis (grade) (Setaria viridis; dosage 2.5 g/mu)","Post-emergence herbicidal activity, S. viridis (grade) (Setaria viridis; dosage 5 g/mu)","Post-emergence herbicidal activity, S. viridis (grade) (Setaria viridis; dosage 10 g/mu)","Post-emergence herbicidal activity, A. theophrasti (grade) (Abutilon theophrasti; dosage 2.5 g/mu)","Post-emergence herbicidal activity, A. theophrasti (grade) (Abutilon theophrasti; dosage 5 g/mu)","Post-emergence herbicidal activity, A. theophrasti (grade) (Abutilon theophrasti; dosage 10 g/mu)"
O=C1C2=C(CCCC2)C(=O)N1c1cc(OCc2nc(-c3cccc(C(F)(F)F)c3)no2)c(Cl)cc1F [Compound A17],4 (Grade 4: the growth control rate is greater than or equal to 60% and less than 85%),5 (Grade 5: the growth control rate is greater than or equal to 85%),5 (Grade 5: the growth control rate is greater than or equal to 85%),1 (Grade 1: the growth control rate is greater than or equal to 5% and less than 20%),2 (Grade 2: the growth control rate is greater than or equal to 20% and less than 40%),3 (Grade 3: the growth control rate is greater than or equal to 40% and less than 60%),5 (Grade 5: the growth control rate is greater than or equal to 85%),5 (Grade 5: the growth control rate is greater than or equal to 85%),5 (Grade 5: the growth control rate is greater than or equal to 85%),4 (Grade 4: the growth control rate is greater than or equal to 60% and less than 85%),5 (Grade 5: the growth control rate is greater than or equal to 85%),5 (Grade 5: the growth control rate is greater than or equal to 85%),2 (Grade 2: the growth control rate is greater than or equal to 20% and less than 40%),3 (Grade 3: the growth control rate is greater than or equal to 40% and less than 60%),4 (Grade 4: the growth control rate is greater than or equal to 60% and less than 85%),5 (Grade 5: the growth control rate is greater than or equal to 85%),5 (Grade 5: the growth control rate is greater than or equal to 85%),5 (Grade 5: the growth control rate is greater than or equal to 85%)
O=C1C2=C(CCCC2)C(=O)N1c1cc(OCc2nc(-c3ccccc3C(F)(F)F)no2)c(Cl)cc1F [Compound A18],4 (Grade 4: the growth control rate is greater than or equal to 60% and less than 85%),5 (Grade 5: the growth control rate is greater than or equal to 85%),5 (Grade 5: the growth control rate is greater than or equal to 85%),1 (Grade 1: the growth control rate is greater than or equal to 5% and less than 20%),2 (Grade 2: the growth control rate is greater than or equal to 20% and less than 40%),3 (Grade 3: the growth control rate is greater than or equal to 40% and less than 60%),5 (Grade 5: the growth control rate is greater than or equal to 85%),5 (Grade 5: the growth control rate is greater than or equal to 85%),5 (Grade 5: the growth control rate is greater than or equal to 85%),4 (Grade 4: the growth control rate is greater than or equal to 60% and less than 85%),5 (Grade 5: the growth control rate is greater than or equal to 85%),5 (Grade 5: the growth control rate is greater than or equal to 85%),2 (Grade 2: the growth control rate is greater than or equal to 20% and less than 40%),3 (Grade 3: the growth control rate is greater than or equal to 40% and less than 60%),4 (Grade 4: the growth control rate is greater than or equal to 60% and less than 85%),5 (Grade 5: the growth control rate is greater than or equal to 85%),5 (Grade 5: the growth control rate is greater than or equal to 85%),5 (Grade 5: the growth control rate is greater than or equal to 85%)
O=C1C2=C(CCCC2)C(=O)N1c1cc(OCc2nc(-c3cccs3)no2)c(Cl)cc1F [Compound A19],4 (Grade 4: the growth control rate is greater than or equal to 60% and less than 85%),5 (Grade 5: the growth control rate is greater than or equal to 85%),5 (Grade 5: the growth control rate is greater than or equal to 85%),1 (Grade 1: the growth control rate is greater than or equal to 5% and less than 20%),2 (Grade 2: the growth control rate is greater than or equal to 20% and less than 40%),3 (Grade 3: the growth control rate is greater than or equal to 40% and less than 60%),5 (Grade 5: the growth control rate is greater than or equal to 85%),5 (Grade 5: the growth control rate is greater than or equal to 85%),5 (Grade 5: the growth control rate is greater than or equal to 85%),4 (Grade 4: the growth control rate is greater than or equal to 60% and less than 85%),5 (Grade 5: the growth control rate is greater than or equal to 85%),5 (Grade 5: the growth control rate is greater than or equal to 85%),2 (Grade 2: the growth control rate is greater than or equal to 20% and less than 40%),3 (Grade 3: the growth control rate is greater than or equal to 40% and less than 60%),4 (Grade 4: the growth control rate is greater than or equal to 60% and less than 85%),5 (Grade 5: the growth control rate is greater than or equal to 85%),5 (Grade 5: the growth control rate is greater than or equal to 85%),5 (Grade 5: the growth control rate is greater than or equal to 85%)
O=C1C2=C(CCCC2)C(=O)N1c1cc(OCc2nc(-c3ccc(OC(F)(F)F)cc3)no2)c(Cl)cc1F [Compound A20],4 (Grade 4: the growth control rate is greater than or equal to 60% and less than 85%),5 (Grade 5: the growth control rate is greater than or equal to 85%),5 (Grade 5: the growth control rate is greater than or equal to 85%),1 (Grade 1: the growth control rate is greater than or equal to 5% and less than 20%),2 (Grade 2: the growth control rate is greater than or equal to 20% and less than 40%),3 (Grade 3: the growth control rate is greater than or equal to 40% and less than 60%),5 (Grade 5: the growth control rate is greater than or equal to 85%),5 (Grade 5: the growth control rate is greater than or equal to 85%),5 (Grade 5: the growth control rate is greater than or equal to 85%),4 (Grade 4: the growth control rate is greater than or equal to 60% and less than 85%),5 (Grade 5: the growth control rate is greater than or equal to 85%),5 (Grade 5: the growth control rate is greater than or equal to 85%),2 (Grade 2: the growth control rate is greater than or equal to 20% and less than 40%),3 (Grade 3: the growth control rate is greater than or equal to 40% and less than 60%),4 (Grade 4: the growth control rate is greater than or equal to 60% and less than 85%),5 (Grade 5: the growth control rate is greater than or equal to 85%),5 (Grade 5: the growth control rate is greater than or equal to 85%),5 (Grade 5: the growth control rate is greater than or equal to 85%)
